Read-outs that look alike come from different tables or passages of the source.
How the values were obtained:
SREBP pathway = experiment: SREBP luciferase reporter gene system (SRE-luciferase assay); assay type: cell-based, human; settings: Huh-7/SRE-luc cells, sterol-deficient medium, 0.01-10 µM
In short: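 Readout was SRE-driven luciferase normalised to GFP fluorescence in lysates of stably transfected Huh-7/SRE-luc hepatoma cells. Compounds (0.01, 0.03, 0.1, 0.3, 1.0, 3.0, 10 µM; DMSO control) were applied for 16 h in sterol-depleted medium with 2 µM lovastatin and 10 µM mevalonate; IC50 from variable-slope fit.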

[1] = test system: Fatty Acid Synthase (FASN) gene; experiment: Inhibition of FASN gene expression (qPCR) in Huh-7 cells; assay type: cell-based, human; settings: Huh-7 cells, starvation medium, 16 hours, qPCR, class symbols, read-out: FASN IC50
Procedure: Huh-7 cells (purchased from ATCC) were cultured in DMEM medium (containing 10% fetal bovine serum LONSERA S711-001S) at 37°C in a 5% CO2 incubator. After 24 hours, the original medium was aspirated and replaced with DMEM starvation medium (containing 5% lipoprotein deficient serum (LPDS), 2 µM lovastatin, and 10 µM mevalonate). The control group was treated with dimethyl sulfoxide (DMSO), while the compound treatment groups were treated with different concentrations of compounds. The highest concentration of the compound was 3000 nM, with 3-fold dilutions, totaling 5 concentrations. The cells were cultured for 16 hours. Cell lysis was performed, followed by reverse transcription from cells to cDNA, and qPCR was performed to detect the expression of the SREBP target gene Fatty Acid Synthase (FASN) gene (FASN gene forward primer sequence: 5'-[…]-3', reverse primer sequence: 5'-[…]-3'). The IC50 was calculated. The test data for each test compound were analyzed using Prism software (with the DMSO-treated group as the reference to calculate the compound inhibition rate, fitted using the Prism log(inhibitor) vs. responseVariable slope (four-parameter) model, calculation formula: Y = Bottom + (Top - Bottom)/(1 + 10^((LogIC50 - X) × HillSlope))), to obtain the IC50 parameters of the compounds. Table 4: Inhibition results of FASN gene expression by compounds from some examples

Compound | IC50 (SREBP pathway; Homo sapiens, Huh-7, 16 h) [µM] | IC50 ([1]; Homo sapiens, Huh-7, 16 h) [nM] | IC50 (SREBP pathway; 16 hours) [µM] | IC50 [1] [nM]
COc1cccc(F)c1C(O)CCC[C@@H](C)[C@H]1CC[C@H]2[C@H]3[C@H](CC[C@]12C)[C@@]1(C)CC[C@H](O)C[C@@H]1CC3(F)F (stereo partly drawn) [Compound 302, (1R,3aS,3bR,5aR,7S,9aS,9bS,11aR)-4,4-difluoro-1-[(2R)-6-(2-fluoro-6-methoxyphenyl)-6-hydroxyhexan-2-yl]-9a,11a-dimethylhexadecahydro-1H-cyclopenta[1,2-a]phenanthren-7-ol] | 0.085 | < 200 | – | –
C[C@H](CCCC(O)c1c(F)cc(F)cc1F)[C@H]1CC[C@H]2[C@H]3[C@H](CC[C@]12C)[C@@]1(C)CC[C@H](O)[C@H](O)[C@@H]1CC3(F)F (stereo partly drawn) [Compound 69, (1R,3aS,3bS,5aR,6R,7S,9aR,9bS,11aR)-4,4-difluoro-1-[(2R)-6-hydroxy-6-(2,4,6-trifluorophenyl)hexan-2-yl]-9a,11a-dimethylhexadecahydro-1H-cyclopenta[1,2-a]phenanthrene-6,7-diol] | 0.086 | < 200 | – | –
C[C@H](CCCC(O)c1cccc2ncn(C)c12)[C@H]1CC[C@H]2[C@H]3[C@H](CC[C@]12C)[C@@]1(C)CC[C@H](O)[C@H](O)[C@@H]1CC3(F)F (single isomer, unassigned) [Compound 299, (1R,3aS,3bS,5aR,6R,7S,9aR,9bS,11aR)-4,4-difluoro-1-[(2R,6R)-6-hydroxy-6-(3-methylbenzo[d]imidazol-4-yl)hexan-2-yl]-9a,11a-dimethylhexadecahydro-1H-cyclopenta[1,2-a]phenanthrene-6,7-diol or (1R,3aS,3bS,5aR,6R,7S,9aR,9bS,11aR)-4,4-difluoro-1-[(2R,6S)-6-hydroxy-6-(3-methylbenzo[d]imidazol-4-yl)hexan-2-yl]-9a,11a-dimethylhexadecahydro-1H-cyclopenta[1,2-a]phenanthrene-6,7-diol] | 0.033 | < 200 | – | –
COc1ncccc1C(O)CCC[C@@H](C)[C@H]1CC[C@H]2[C@H]3[C@H](CC[C@]12C)[C@@]1(C)CC[C@H](O)[C@H](O)[C@@H]1CC3(F)F (single isomer, unassigned) [Compound 193, (1R,3aS,3bS,5aR,6R,7S,9aR,9bS,11aR)-4,4-difluoro-1-[(2R,6R)-6-hydroxy-6-(2-methoxypyridin-3-yl)hexan-2-yl]-9a,11a-dimethylhexadecahydro-1H-cyclopenta[1,2-a]phenanthrene-6,7-diol or (1R,3aS,3bS,5aR,6R,7S,9aR,9bS,11aR)-4,4-difluoro-1-[(2R,6S)-6-hydroxy-6-(2-methoxypyridin-3-yl)hexan-2-yl]-9a,11a-dimethylhexadecahydro-1H-cyclopenta[1,2-a]phenanthrene-6,7-diol] | – | – | 0.072 | 200 to 500
C[C@H](CCC[C@@H](O)c1nc2cnccc2n1C)[C@H]1CC[C@H]2[C@H]3[C@H](CC[C@]12C)[C@@]1(C)CC[C@H](O)[C@H](O)[C@@H]1CC3(F)F (stereo in doubt) [Compound 326, (1R,3aS,3bS,5aR,6R,7S,9aR,9bS,11aR)-4,4-difluoro-1-[(2R,6R)-6-hydroxy-6-(1-methylimidazo[5,4-c]pyridin-2-yl)hexan-2-yl]-9a,11a-dimethylhexadecahydro-1H-cyclopenta[1,2-a]phenanthrene-6,7-diol] | 0.011 | < 200 | – | –
COc1cccc(F)c1C(O)CCC[C@@H](C)[C@H]1CC[C@H]2C3=C(F)C[C@H]4[C@@H](O)[C@@H](O)CC[C@]4(C)[C@H]3CC[C@]12C (stereo partly drawn) [Compound 105, (1R,3aR,5aR,6R,7S,9aR,9bR,11aR)-4-fluoro-1-[(2R)-6-(2-fluoro-6-methoxyphenyl)-6-hydroxyhexan-2-yl]-9a,11a-dimethyl-2,3,3a,5,5a,6,7,8,9,9a,9b,10,11,11a-tetradecahydro-1H-cyclopenta[1,2-a]phenanthrene-6,7-diol] | 0.109 | 200 to 500 | – | –
COc1ccnc(OC)c1C(O)CCC[C@@H](C)[C@H]1CC[C@H]2[C@H]3[C@H](CC[C@]12C)[C@@]1(C)CC[C@H](O)[C@H](O)[C@@H]1CC3(F)F (single isomer, unassigned) [Compound 171, (1R,3aS,3bS,5aR,6R,7S,9aR,9bS,11aR)-1-[(2R,6S)-6-(2,4-dimethoxypyridin-3-yl)-6-hydroxyhexan-2-yl]-4,4-difluoro-9a,11a-dimethylhexadecahydro-1H-cyclopenta[1,2-a]phenanthrene-6,7-diol or (1R,3aS,3bS,5aR,6R,7S,9aR,9bS,11aR)-1-[(2R,6R)-6-(2,4-dimethoxypyridin-3-yl)-6-hydroxyhexan-2-yl]-4,4-difluoro-9a,11a-dimethylhexadecahydro-1H-cyclopenta[1,2-a]phenanthrene-6,7-diol] | – | < 200 | 0.013 | –
C[C@H](CCCC(O)c1ccc(F)cc1)[C@H]1CC[C@H]2C3=C(F)C[C@H]4[C@@H](O)[C@@H](O)CC[C@]4(C)[C@H]3CC[C@]12C (stereo partly drawn) [Compound 101, (1R,3aR,5aR,6R,7S,9aR,9bR,11aR)-4-fluoro-1-[(2R)-6-(4-fluorophenyl)-6-hydroxyhexan-2-yl]-9a,11a-dimethyl-2,3,3a,5,5a,6,7,8,9,9a,9b,10,11,11a-tetradecahydro-1H-cyclopenta[1,2-a]phenanthrene-6,7-diol] | 0.298 | 200 to 500 | – | –
COc1cc(Cl)ccc1[C@H](O)CCC[C@@H](C)[C@H]1CC[C@H]2[C@H]3[C@H](CC[C@]12C)[C@@]1(C)CC[C@H](O)[C@H](O)[C@@H]1CC3(F)F [Compound 113, (1R,3aS,3bS,5aR,6R,7S,9aR,9bS,11aR)-1-[(2R,6R)-6-(4-chloro-2-methoxyphenyl)-6-hydroxyhexan-2-yl]-4,4-difluoro-9a,11a-dimethylhexadecahydro-1H-cyclopenta[1,2-a]phenanthrene-6,7-diol] | 0.228 | 200 to 500 | – | –
C[C@H](CCCC(O)c1c(F)cccc1F)[C@H]1CC[C@H]2C3=C(F)CC4C[C@@H](O)CC[C@]4(C)[C@H]3CC[C@]12C (stereo in doubt) [Compound 82, (1R,3aR,7S,9aS,9bR,11aR)-1-[(2R)-6-(2,6-difluorophenyl)-6-hydroxyhexan-2-yl]-4-fluoro-9a,11a-dimethyl-2,3,3a,5,5a,6,7,8,9,9a,9b,10,11,11a-tetradecahydro-1H-cyclopenta[1,2-a]phenanthren-7-ol] | 0.357 | 200 to 500 | – | –
C[C@H](CCC(=O)N(C)c1ccccc1F)[C@H]1CC[C@H]2[C@H]3[C@H](CC[C@]12C)[C@@]1(C)CC[C@H](O)[C@H](O)[C@@H]1CC3(F)F [Compound 95, (4R)-4-[(1R,3aS,3bS,5aR,6R,7S,9aR,9bS,11aR)-4,4-difluoro-6,7-dihydroxy-9a,11a-dimethylhexadecahydro-1H-cyclopenta[1,2-a]phenanthren-1-yl]-N-(2-fluorophenyl)-N-methylpentanamide] | 0.08 | < 200 | – | –
COc1cc(F)c([C@H](O)CCC[C@@H](C)[C@H]2CC[C@H]3[C@H]4[C@H](CC[C@]23C)[C@@]2(C)CC[C@H](O)[C@H](O)[C@@H]2CC4(F)F)c(F)c1Br (single isomer, unassigned) [Compound 199] | 0.152 | 200 to 500 | – | –
COc1cc(F)cc(F)c1C(O)CCC[C@@H](C)[C@H]1CC[C@H]2[C@H]3[C@H](CC[C@]12C)[C@@]1(C)CC[C@H](O)[C@H](O)[C@@H]1CC3(F)F (single isomer, unassigned) [Compound 200, (1R,3aS,3bS,5aR,6R,7S,9aR,9bS,11aR)-1-[(2R,6S)-6-(4,6-difluoro-2-methoxyphenyl)-6-hydroxyhexan-2-yl]-4,4-difluoro-9a,11a-dimethylhexadecahydro-1H-cyclopenta[1,2-a]phenanthrene-6,7-diol or (1R,3aS,3bS,5aR,6R,7S,9aR,9bS,11aR)-1-[(2R,6R)-6-(4,6-difluoro-2-methoxyphenyl)-6-hydroxyhexan-2-yl]-4,4-difluoro-9a, 11a-dimethylhexadecahydro-1H-cyclopenta[1,2-a]phenanthrene-6,7-diol] | 0.053 | < 200 | – | –
C[C@H](CCC[C@@H](O)c1ccccn1)[C@H]1CC[C@H]2[C@H]3[C@H](CC[C@]12C)[C@@]1(C)CC[C@H](O)[C@H](O)[C@@H]1CC3(F)F [Compound 92, (1R,3aS,3bS,5aR,6R,7S,9aR,9bS,11aR)-4,4-difluoro-1-[(2R,6R)-6-hydroxy-6-(pyridin-2-yl)hexan-2-yl]-9a,11a-dimethylhexadecahydro-1H-cyclopenta[1,2-a]phenanthrene-6,7-diol] | 0.371 | < 200 | – | –
C[C@H](CCCC(O)c1nccs1)[C@H]1CC[C@H]2[C@H]3[C@H](CC[C@]12C)[C@@]1(C)CC[C@H](O)[C@H](O)[C@@H]1CC3(F)F (stereo partly drawn) [Compound 89, (1R,3aS,3bS,5aR,6R,7S,9aR,9bS,11aR)-4,4-difluoro-1-[(2R)-6-hydroxy-6-(1,3-thiazol-2-yl)hexan-2-yl]-9a,11a-dimethylhexadecahydro-1H-cyclopenta[1,2-a]phenanthrene-6,7-diol] | 0.183 | < 200 | – | –

— EP4752152A1, “STEROID COMPOUND, AND PREPARATION METHOD THEREFOR AND USE THEREOF” (Cholesgen (Shanghai) Co.Ltd., priority 2023, dated 2025)
